Measured values taken from patent US8431606B2, “Medicament for treating schizophrenia comprising cilostazol” (Otsuka Pharmaceutical Co., Ltd., priority 2007, dated 2013).

Tests used:
Type in all cases: in vivo
[1] = tested on: locomotion of mice enhanced by administering dizocilpine; assay: dizocilpine-induced hyperlocomotion in mice; settings: male ddY mice; cilostazol 0.03-3.0 mg/kg orally 30 minutes before dizocilpine 0.1 mg/kg s.c.; locomotion measured for 2 hours
Procedure: In this experiment, cilostazol was studied about the effect affecting the locomotion of mice which was enhanced by administering dizocilpine.
Male ddY mice (7-8 weeks old) were put in a scanning apparatus of spontaneous motor activity (SCANET SV-10, Melquest, Toyama, Japan). After 30 minutes, vehicle (0.3% CMC) or cilostazol (0.03, 0.1, 0.3, 1.0, and 3.0 mg/kg) was orally administered to the mice, and after additional 30 minutes dizocilpine (0.1 mg/kg) was administered subcutaneously. Then, the locomotion of the mice was measured for 2 hours.

[2] = tested on: dizocilpine-induced PPI deficits in mice; assay: prepulse inhibition of the acoustic startle reflex, dizocilpine-induced PPI deficits in mice; settings: dizocilpine 0.1 mg/kg, cilostazol administered one hour before testing, dose dependent manner
Procedure: The test animals were prepared by similar means of the above Example 2. Cilostazol was administered one hour before testing. Testing was conducted in eight startle devices each consisting of a Plexiglas cylinder (5 cm in diameter) mounted on a Plexiglas platform in a ventilated sound attenuated cubicle with a high-frequency loudspeaker producing all acoustic stimuli. The background noise of each chamber was 65 dB. Movements within the cylinder were detected and transduced by a piezoelectric accelerometer attached to the Plexiglas base and digitized and stored by a computer. Beginning at the stimulus onset, readings were recorded to obtain the animals' startle amplitude. Each section was initiated with a 10 minutes acclimation period followed by six successive trials, which were not included in the analysis. Startle pulse alone (ST110, 110 dB/40 msec); eight different prepulse trials in which either 20-msec-long 69, 73, 77, and 81 dB stimuli were presented alone (P69, P73, P77, P81) or preceded the 110 dB pulse by 100 msec (PP69, PP73, PP77, PP81); and finally one trial in which only the background noise was presented to measure the baseline movements in the cylinder. All trials were presented in a pseudorandom order, and the average intertrial interval (ITI) was […]. The startle data and percentage prepulse inhibition (PPI) were analyzed by MANOVA (two-ways ANOVA).

[3] = tested on: model animals prepared with phencyclidine; assay: re-recognizing test for a new object in model animals prepared with phencyclidine; settings: male ICR mice, phencyclidine 10 mg/kg s.c. 10 days
Procedure: Male ICR mice (6 weeks old, 25-30 g, purchased from Japan SLC, Inc.) were used as experimental animals. The experimental procedure was approved by the laboratory animal ethics committee in the Graduate School of Medicine and School of Medicine, Chiba University. Phencyclidine was subcutaneously administered to the mice in 10 mg/kg once a day for 10 days. […] Twenty four hours after the final administration, re-recognizing test for a new object was carried out. The re-recognizing test for a new object was carried out using a black open-field (50.8×50.8×25.4 cm). The mice were made to be trained in the open-field for three days before starting the re-recognizing test for a new object. Two objects which have almost the same size but different shapes and colors were set separating off in a distance of 35.5 cm, and then the mice were made to seek for 10 minutes. After the seeking, the mice were put back to the gauge. Twenty four hours after the first seeking, a memory retention test was carried out. On this memory retention test, one of the objects was replaced by a new one. The mice were made to seek for 5 minutes, and the time which was taken to seek each object was recorded. The results were shown as a ratio of the seeking time of the new object against that of the two objects. The data were shown as mean±standard deviation. The statistical analyses thereof were carried out using one-way ANOVA and post-hoc Bonferroni test. A p-value of 0.05 or less was considered as a statistical significance.

## O=C1CCc2cc(OCCCCc3nnnn3C3CCCCC3)ccc2N1 [cilostazol, 6-[4-(1-cyclohexyl-1H-tetrazol-5-yl)butoxy]-3,4-dihydrocarbostyril]
[1]
  locomotion enhanced by administering dizocilpine: significantly inhibited
[2]
  PPI deficits caused by administration of dizocilpine: significantly inhibited
[3]; cilostazol 3 mg/kg orally once a day for two weeks
  condition of schizophrenia caused by phencyclidine (ratio of the seeking time of the new object): improved significantly
[3]; cilostazol 10 mg/kg orally once a day for two weeks
  condition of schizophrenia caused by phencyclidine (ratio of the seeking time of the new object): improved significantly
[3]; cilostazol 30 mg/kg orally once a day for two weeks
  condition of schizophrenia caused by phencyclidine (ratio of the seeking time of the new object): improved significantly
[3]; cilostazol orally once a day for two weeks, dose-dependently
  condition of schizophrenia caused by phencyclidine (ratio of the seeking time of the new object): improved
